Starred links: 1 amine or outer side, 2 acyl side, 3 side chain; linkers in the order of their positions; H or OH if unused. Non-standard residues stand in square brackets, D forms with d. Residues, ends and D or L forms follow the SMILES beside them. Groups on a side chain read outwards from the residue. *: point of attachment. F(4amPEG2NHDOTA-Lu) = lutetium complex of (S)-2,2',2''-(10-(1-(4-(2-amino-2-carboxyethyl)phenyl)-3,12-dioxo-5,8-dioxa-2,11-diazatridecan-13-yl)-1,4,7,10-tetraazacyclododecane-1,4,7-triyl)triacetic acid (Phe with 4-aminomethyl-PEG2-DOTA-Lu), O=C([O-])CN1CCN(CC(=O)[O-])CCN(CC(=O)NCCOCCOCC(=O)NCc2ccc(C[C@H](N[*:1])C(=O)[*:2])cc2)CCN(CC(=O)[O-])CC1.[Lu+3]; COpipzaa = 4-(carboxymethyl)piperazine-1-carbonyl, O=C(O)CN1CCN(C(=O)*)CC1; DOTA(Lu) = O=C1CN2CCN3CCN(CC(=O)*)CCN(CC2)CC(=O)[O][Lu]([O]1)[O]C(=O)C3; DOTA = O=C(O)CN1CCN(CC(=O)O)CCN(CC(=O)*)CCN(CC(=O)O)CC1; Phe(4-CH2NH2) = NCc1ccc(C[C@H](N)C(=O)O)cc1; Piperazinyl(4-CH2COOH) = O=C(O)CN1CCN(*)CC1; NMeF = CN[C@@H](Cc1ccccc1)C(=O)O; Aoc(2) = CCCCCC[C@H](N)C(=O)O; Ahp(2) = CCCCC[C@H](N)C(=O)O; AEEA = NCCOCCOCC(=O)O; CO = O=C([*:1])[*:2]
Experiments:
[1] = target: T1, human FAP (Homo sapiens, UniProt Q12884); assay: Surface plasmon resonance (SPR) for peptide affinity, human FAP; assay type: binding; details: read-out: h. FAP, SPR, KD
T1 construct: the biotinylated His, Avi tag, human FAP (26-760, FAP-H82Q6); His; Avi tag (biotinylated); purchased AcroBiosystems FAP-H82Q6
T1 sequence (Q12884 26-760): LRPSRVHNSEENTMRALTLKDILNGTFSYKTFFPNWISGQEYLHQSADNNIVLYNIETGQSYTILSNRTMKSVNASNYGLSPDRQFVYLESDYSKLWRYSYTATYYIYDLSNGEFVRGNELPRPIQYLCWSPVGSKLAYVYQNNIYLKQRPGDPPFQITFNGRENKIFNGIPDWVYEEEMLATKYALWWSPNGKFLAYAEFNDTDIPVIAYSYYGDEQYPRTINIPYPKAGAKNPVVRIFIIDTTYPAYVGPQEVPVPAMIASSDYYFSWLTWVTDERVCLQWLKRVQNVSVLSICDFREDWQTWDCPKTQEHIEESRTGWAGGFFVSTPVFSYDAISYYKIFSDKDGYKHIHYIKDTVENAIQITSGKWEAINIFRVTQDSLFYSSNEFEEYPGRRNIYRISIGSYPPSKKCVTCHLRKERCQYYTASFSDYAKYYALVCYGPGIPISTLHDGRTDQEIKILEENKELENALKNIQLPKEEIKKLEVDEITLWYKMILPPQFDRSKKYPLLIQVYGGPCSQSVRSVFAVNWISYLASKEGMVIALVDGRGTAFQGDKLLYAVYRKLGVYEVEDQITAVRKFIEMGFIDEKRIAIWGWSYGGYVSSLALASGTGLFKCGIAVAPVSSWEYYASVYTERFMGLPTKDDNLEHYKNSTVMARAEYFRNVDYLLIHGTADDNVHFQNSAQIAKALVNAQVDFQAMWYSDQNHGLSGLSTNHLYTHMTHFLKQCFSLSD
Method: Peptide affinities (KD) were determined by SPR using a Biacore™ 8K device (Cytiva) towards the following proteins: biotinylated His, Avi tag, human FAP (26-760, FAP-H82Q6), biotinylated His, Avi tag, mouse FAP (26-761, FAP-M82Q5), His tag, human DPP4 (34-766, DP4-H82E3), all purchased from AcroBiosystems and His tag, mouse DPP4 (29-760, 954-SE) from R&D Systems. The FAP proteins and their homologous were diluted to a concentration of 2 μg/mL into acetate buffer pH 5.5, then immobilized onto a CM5 sensorchip (Cytiva, BR-1005-30) to reach a response around 2000 R U. The running buffer HBS-EP+pH 7.6 (20× from Teknova CAT. No: H8022) contained 10 mM HEPES pH 7.6, 150 mM NaCl, 3 mM EDTA, 0.05% Tween20 and 2% DMSO. Experiments were carried out at 25° C. using a flow rate of 30 μL/min. Compounds were tested in single cycle kinetic mode at 8 different concentrations. Curve fitting was performed using the Biacore™ 8K evaluation software. The sensorgrams were fitted by applying a 1:1 binding model to calculate kinetic rate constants and equilibrium dissociation constants (KD).
For this assay, the setup had the same conditions (flow rate, running buffer, peptide dilution) as described above for the CM5 method. The oligo CAP reagent obtained in the CAPture Kit (Ref. 28920234) was 1/5 diluted into running buffer and used with a contact time of 300 s at a flow rate of 2 μL/min. The human and mouse FAP constructs described above were used (from AcroBiosystems or produced in house). The FAP proteins were diluted to a concentration of 2 μg/mL into acetate pH 5.5, 0.05% Tween20 and used with a contact time of 600 s at a flow rate of 10 μL/min. The peptides were tested with an association time of 280 s followed by a dissociation time of 3000 s at a flow rate of 30 μL/min. The regeneration was done using the regeneration solution (8 M guanidine-HCl, 1 M NaOH) as obtained with a contact time of 270 s at a flow rate of 10 μL/min. […] The compounds marked with an asterisk were tested against human and mouse DDP4.

[2] = target: T2, mouse FAP (Mus musculus, UniProt P97321); assay: Surface plasmon resonance (SPR) for peptide affinity, mouse FAP; assay type: binding
T2 construct: biotinylated His, Avi tag, mouse FAP (26-761, FAP-M82Q5); His; Avi tag (biotinylated); purchased AcroBiosystems FAP-M82Q5
T2 sequence (P97321 26-761): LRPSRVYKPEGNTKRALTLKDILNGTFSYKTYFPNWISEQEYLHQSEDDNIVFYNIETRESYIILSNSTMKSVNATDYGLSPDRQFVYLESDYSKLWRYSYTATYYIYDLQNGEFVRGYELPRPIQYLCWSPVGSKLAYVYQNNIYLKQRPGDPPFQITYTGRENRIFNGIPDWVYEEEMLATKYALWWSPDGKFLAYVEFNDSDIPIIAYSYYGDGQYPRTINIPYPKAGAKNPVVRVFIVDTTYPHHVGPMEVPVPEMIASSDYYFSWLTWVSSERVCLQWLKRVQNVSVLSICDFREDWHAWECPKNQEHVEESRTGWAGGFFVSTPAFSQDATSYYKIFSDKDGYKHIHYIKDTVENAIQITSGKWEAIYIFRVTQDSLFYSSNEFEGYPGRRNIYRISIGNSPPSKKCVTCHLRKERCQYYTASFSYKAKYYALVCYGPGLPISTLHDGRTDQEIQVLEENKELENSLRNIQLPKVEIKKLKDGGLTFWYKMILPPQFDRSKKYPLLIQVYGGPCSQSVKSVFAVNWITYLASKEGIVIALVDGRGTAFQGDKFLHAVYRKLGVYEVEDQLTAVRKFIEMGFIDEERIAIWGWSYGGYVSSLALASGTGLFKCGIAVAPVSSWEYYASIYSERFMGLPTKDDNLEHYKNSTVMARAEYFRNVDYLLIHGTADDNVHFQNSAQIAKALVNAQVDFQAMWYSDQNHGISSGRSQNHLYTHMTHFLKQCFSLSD
Procedure, shortened: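 Biotinylated His/Avi-tagged FAP ectodomains (human 26-760, mouse 26-761) captured or immobilized on Biacore sensor chips; peptides run at 25 °C in HBS-EP+ pH 7.6 with 2% DMSO, single-cycle kinetics, 8 concentrations. KD from 1:1 binding-model fit of sensorgrams.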

[3] = target: T1, human FAP; assay: Enzymatic FAP competition assay (Z-Gly-Pro-AMC fluorescence), human FAP; assay type: biochemical; details: read-out: h. FAP, Enz., IC50
Procedure, shortened: (§1)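 Biotinylated His/Avi-tagged FAP ectodomain (human 26-760, mouse 26-761) at 0.01 nM, preincubated 24 h with peptides (14 concentrations, up to 1 μM) in pH 7.5 phosphate, 150 mM NaCl, 0.05% Tween20, 1% DMSO. Then 50 μM Z-Gly-Pro-AMC, 4 h at 22-24° C; AMC fluorescence (380/460 nm) gave IC50 from duplicate points.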

[4] = target: T2, mouse FAP; assay: Enzymatic FAP competition assay (Z-Gly-Pro-AMC fluorescence), mouse FAP; assay type: biochemical; details: read-out: m. FAP, Enz., IC50
Procedure, shortened: as §1

Molecule | Kd [1] [nM] | Kd [2] [nM] | IC50 [3] [nM] | IC50 [4] [nM]
CCCCC[C@@H]1NC(=O)[C@H](Cc2ccc(O)cc2)NC(=O)[C@H](Cc2ccccc2)N(C)C(=O)CNC(=O)[C@@H]2CCCN2C(=O)[C@H]2CCCN2C(=O)[C@H](CC(=O)O)NC(=O)[C@H](Cc2ccc(O)cc2)NC(=O)CNC(=O)[C@H](Cc2c[nH]c3ccccc23)NC1=O [Example A51, 2-((6S,9S,15S,18S,21S,24S,29aS,34aR)-15-((1H-indol-3-yl)methyl)-24-benzyl-9,21-bis(4-hydroxybenzyl)-25-methyl-5,8,11,14,17,20,23,26,29,34-decaoxo-18-pentyldotriacontahydro-1H,5H-dipyrrolo[1,2-a:1′,2′-b1][1,4,7,10,13,16,19,22,25,28]decaazacyclotriacontin-6-yl)acetic acid] (cyclo(G[NMeF]Y[Ahp(2)]WGYD[dP]P)) | 0.163 | 0.185 | 0.117 | 0.4
Gly-Gly-NMePhe-F(4amPEG2NHDOTA-Lu)-Ahp-Trp-Gly-K(COpipzaa)-Asp-D-Pro (cyclo(GG[NMeF][F(4amPEG2NHDOTA-Lu)][Ahp(2)]WGK(COpipzaa)D[dP]); also: Lu complex) [Example C13] | < 0.011 | 0.024 | 0.004 | 0.011
Lys(DOTA-Lu)-Gly-NMePhe-Tyr-Ahp-Trp-Gly-Tyr-Asp-D-Pro (cyclo(K(DOTA(Lu))G[NMeF]Y[Ahp(2)]WGYD[dP]); also: Lu complex) [Example C22] | 0.41 | 0.64 | 0.43 | 1.1
CCCCCC[C@@H]1NC(=O)[C@H](Cc2ccc(CNC(=O)COCCOCCNC(=O)CN3CCN(CC(=O)O)CCN(CC(=O)O)CCN(CC(=O)O)CC3)cc2)NC(=O)[C@H](Cc2ccccc2)N(C)C(=O)CNC(=O)CNC(=O)[C@H]2CCCN2C(=O)[C@H](CC(=O)O)NC(=O)[C@H](CCCCNC(=O)N2CCN(CC(=O)O)CC2)NC(=O)CNC(=O)[C@H](Cc2c[nH]c3ccccc23)NC1=O [Example B1, Gly-Gly-NMePhe-F(4amPEG2NHDOTA)-Aoc-Trp-Gly-K(COpipzaa)-Asp-D-Pro] (cyclo(GG[NMeF][Phe(4-CH2NH2)]([AEEA-DOTA])[Aoc(2)]WGK([CO-Piperazinyl(4-CH2COOH)])D[dP])) | < 0.011 | < 0.018 | 0.005 | 0.013
